# Source: article PMC12073159, “Inhibition Mechanism of Mulberry Prenylated Flavonoids Sanggenone D/Kuwanon G Against α-Glucosidase and the Regulation of Glucose via GLUT4 Pathway” (Nutrients, 2025)
# “Also recorded” adds a separate entry of the source.
# Experiments:
# α-glucosidase [1] = conditions: cited from earlier work
# α-glucosidase [2] = assay: α-glucosidase inhibitory activity (p-NPG, absorbance at 405 nm); assay type: biochemical; conditions: 1 U/mL α-glucosidase, pH 6.8, 37 °C, p-NPG substrate; read-out: IC50 (semi-inhibitory concentration)
# Description: Subsequently, 50 μL of 2 mmol/L p-NPG was added, and the mixture was incubated at 37 °C for 20 min. Finally, 50 μL of 1 mol/L Na2CO3 was added to an ice bath for 5 min to terminate the reaction. The absorbance was measured at 405 nm, and the α-glucosidase inhibitory activity was calculated according to Formula (1). All experiments were performed in triplicate.(1) Inhibition rate of enzyme activity/%=(1−Aa−Ab/Ac−Ad)×100%
# Aa is the absorbance of the sample group, Ab is the absorbance of the sample background group (equal volume of buffer instead of enzyme solution), Ac is the absorbance of the control group (equal volume of buffer instead of the sample solution), and Ad is the absorbance of the control background group (equal volume of buffer instead of the sample and enzyme solution).
# α-glucosidase [3] = assay: Inhibition kinetics assay (Lineweaver–Burk); assay type: biochemical; conditions: for Inhibition type: Lineweaver–Burk plots; for Ki: inhibitory constant on α-glucosidase
# Description: The inhibition assay of α-glucosidase was adapted from MORTEZA, with some modification. A total of 50 μL of α-glucosidase solution (1 U/mL) was added to 96-well plates, and 50 μL of sample solution with different concentrations (sanggenone D: 0, 20, 100, 200 μg/mL; kuwanon G: 0, 10, 20, 40 μg/mL) was incubated at 37 °C for 10 min. Subsequently, different concentrations of pNPG solution were added and incubated at 37 °C for 20 min. Finally, sodium carbonate solution (50 μL, […]) was added to terminate the reaction. Colorimetry was performed at 405 nm using a spectrophotometer to determine the change in absorbance of the enzymatic reaction system. The reversible inhibitory effect types of sanggenone D and kuwanon G on the enzyme were analyzed by the Lineweaver–Burk equation. The relevant parameters were calculated using Formulas (2)–(4).
# In the formula, V represents the reaction rate, and Vm represents the maximum reaction rate. [I] is the concentration of the compound sample, and [S] is the substrate concentration. Km represents the Michaelis constant, and KI and KIS represent the inhibitory constants of the compound sample on α-glucosidase and the α-glucosidase–substrate complex, respectively.
# α-glucosidase [4] = assay: Fluorescence quenching spectroscopy (Stern–Volmer); assay type: binding
# Description: A total of 100 μL of 1 U/mL α-glucosidase extract was mixed with […] of different concentrations (sanggenone D: 0, 1, 5, 10, 20, 50, 60 μg/mL; kuwanon G: 0, 1, 5, 10, 20, 40, 60 μg/mL) and incubated at three temperatures of 298 K, 304 K, and 310 K for 5 min. Then, the mixture were scanned with fluorescence spectroscopy (SpectraMax i3x, Molecular Devices, LLC., San Jose, CA, USA). The excitation wavelength was set at 280 nm, the emission wavelength was 300–500 nm, and the widths of both excitation and emission slits were 5 nm. The fluorescence quenching parameters were calculated according to the following equations.
# Stern–Volmer dynamic collision quenching equation:(5) F0/F=1+KSVQ=1+Kqτ0Q (6) lgF0−F/F=lgKa+nlg[Q]
# F0 and F represent the fluorescence intensity peaks of α-glucosidase without and with the compound, respectively; [Q] is the sample concentration; and τ0 is the protein’s average lifetime (10^−8 s).
# HepG2 cells [5] = assay: CCK-8 toxicity test of HepG2 cells; assay type: cell-based, human; conditions: 24 h
# Description: DMEM complete medium was configured with 88% DMEM high glucose medium, 10% fetal bovine serum, 1% double antibodies, and 1% non-essential amino acids. HepG2 cells were seeded in the complete medium and incubated at 37 °C with 5% CO2. When the cell confluence grew to 80–90%, the passage was carried out at a ratio of 1:3. According to the method of Cao et al., a hyperglycemic model was established through insulin induction. HepG2 cells in the logarithmic growth stage were inoculated with 4 × 10^4 cells per well in a 96-well plate and cultured at 37 °C and 5% carbon dioxide for 24 h. After the cell coverage reached 80%, 100 µL of sanggenone D and kuwanon G with different concentrations were added for 24 h. Then, 100 µL CCK-8/complete culture solution (1:9) was added to each well, and the absorbance at 450 nm was measured by an enzymoleter after 1 h of culture. The toxicity test was conducted in triplicate.(8) Cell survival rate (%)=Asample/Acontrol×100%
# HepG2 cells [6] = assay: Cellular glucose, TC and TG content in high-glucose model HepG2 cells; assay type: cell-based, human; conditions: 20, 80 μg/mL, 24 h, compared with the model group
# Description: DMEM complete medium was configured with 88% DMEM high glucose medium, 10% fetal bovine serum, 1% double antibodies, and 1% non-essential amino acids. HepG2 cells were seeded in the complete medium and incubated at 37 °C with 5% CO2. When the cell confluence grew to 80–90%, the passage was carried out at a ratio of 1:3. According to the method of Cao et al., a hyperglycemic model was established through insulin induction.
# The sample concentration (sanggenone D: 20, 80 μg/mL; kuwanon G: 20, 80 μg/mL) used in this experiment was determined by a CCK8 experiment. HepG2 cells were inoculated with 2 × 10^5 in a 12-well plate and cultured for 24 h. After being attached to the well, the samples containing different concentrations were replaced and the cells were treated for 24 h. The relevant indexes were determined by the kit method according to the instructions of the manufacturer. Each measurement was performed in triplicate.
# GLUT4 = assay: Western blotting, GLUT4 expression in HepG2 cells; assay type: cell-based, human; conditions: compared with the model group
# Description: The tissue proteins were extracted with cold total protein extraction buffer (TPEB) [98% RIPA buffer (Solarbio, Beijing, China), 1% phosphatase inhibitor mix (Sangon Biotech, Shanghai, China), and 1% protease inhibitor mix (Cell Signaling Technology, Danvers, MA, USA)], and protein concentration was determined by the bicinchoninic acid assay (BCA) method. A total of 20 μg of protein samples were separated by SDS-PAGE and transferred to a polyvinylidene difluoride (PVDF) membrane. The membrane was washed with PBST for 5 min, then incubated with 5% skim milk at room temperature for 1 h. Subsequently, the membrane was cleaned with PBST five times for 5 min and incubated overnight at 4 °C with the primary antibodies [ACC (Zenbio #381131; 1:750 dilution), AMPK (Zenbio #380431; 1:500 dilution), p-AMPK (Zenbio #340763; 1:750 dilution), CPT-1 (proteintech #15184-1-AP 1:3000 dilution), and GLUT4 (Zenbio #347063; 1:1000 dilution)]. Finally, the membrane was incubated with the secondary antibody (Abmart #T40104, 1:3000 dilution) at room temperature for 1 h. Chemiluminescent visualization of the protein bands was achieved using an ECL system (Millipore, Burlington, MA, USA) and documented with Image Lab software for PC Version 6.1 (Bio-Rad, South Granville, NSW, Australia). Densitometric analysis of the resulting bands was conducted using ImageJ 2 software.
# p-AMPK = assay: Western blotting, p-AMPK in HepG2 cells; assay type: cell-based, human; conditions: compared with the model group
# CPT-1 = assay: Western blotting, CPT-1 expression in HepG2 cells; assay type: cell-based, human
IC50 (α-glucosidase [2]) [µM],Ki (α-glucosidase [3]) [µM],KSV (α-glucosidase [4]; 298 K),Ka (α-glucosidase [4]; 298 K),Kq (α-glucosidase [4]; 298 K),KSV (α-glucosidase [4]; 304 K),Ka (α-glucosidase [4]; 304 K),Kq (α-glucosidase [4]; 304 K),KSV (α-glucosidase [4]; 310 K),Ka (α-glucosidase [4]; 310 K),Kq (α-glucosidase [4]; 310 K),Compound,Inhibition type (α-glucosidase [3]),Glucose content in HepG2 cells (HepG2 cells [6]),TC content in HepG2 cells (HepG2 cells [6]),TG content in HepG2 cells (HepG2 cells [6]),GLUT4 expression (GLUT4),Expression of CPT-1 (CPT-1),other results
,,,,,,,,,,,COc1cc(/C=C/C(=O)O)ccc1O [ferulic acid],,,,,,,IC50 for α-glucosidase (α-glucosidase [1]): 866 µg/mL
38.3,83.5,5.41 ± 0.01 ×10^4 L/mol,36.85 ± 0.17 ×10^3 L/mol,5.41 ± 0.01 ×10^12 L/mol,4.91 ± 0.03 ×10^4 L/mol,194.98 ± 0.42 ×10^3 L/mol,4.91 ± 0.03 ×10^12 L/mol,3.35 ± 0.01 ×10^4 L/mol,1984.27 ± 0.33 ×10^3 L/mol,3.35 ± 0.01 ×10^12 L/mol,CC(C)=CCc1c(-c2ccc(O)cc2O)oc2c([C@H]3C=C(C)C[C@@H](c4ccc(O)cc4O)[C@@H]3C(=O)c3ccc(O)cc3O)c(O)cc(O)c2c1=O [kuwanon G],competitive inhibition type,significantly reduced,significantly reduced,significantly reduced,notably up-regulated,significantly upregulated,Survival percentage of HepG2 cells (HepG2 cells [5]; concentration less than 80 μg/mL): above 90%; p-AMPK (p-AMPK): significantly promoted
45.1,253,3.90 ± 0.04 ×10^4 L/mol,7.28 ± 0.21 ×10^3 L/mol,3.90 ± 0.04 ×10^12 L/mol,3.24 ± 0.02 ×10^4 L/mol,16.73 ± 0.14 ×10^3 L/mol,3.24 ±0.02 ×10^12 L/mol,2.56 ± 0.02 ×10^4 L/mol,180.18 ± 0.30 ×10^3 L/mol,2.56 ±0.02 ×10^12 L/mol,CC(C)=CCC12Oc3cc(O)ccc3C1(O)Oc1cc(O)c(C3C=C(C)CC(c4ccc(O)cc4O)C3C(=O)c3ccc(O)cc3O)c(O)c1C2=O (centres unmarked) [sanggenone D],non-competition/anti-competition mixed inhibition; also recorded: mixed inhibition of noncompetitive and anticompetitive,significantly reduced,significantly reduced,significantly reduced,notably up-regulated,significantly upregulated,Survival percentage of HepG2 cells (HepG2 cells [5]; concentration less than 100 μg/mL): above 90%
